Source: ChEMBL document CHEMBL5729440, “Compounds and methods for treating oxalate-related diseases” (2022)

Molecular target: T1, 2-Hydroxyacid oxidase 1 (Homo sapiens, UniProt Q9UJM8)
T1 sequence (Q9UJM8 whole entry): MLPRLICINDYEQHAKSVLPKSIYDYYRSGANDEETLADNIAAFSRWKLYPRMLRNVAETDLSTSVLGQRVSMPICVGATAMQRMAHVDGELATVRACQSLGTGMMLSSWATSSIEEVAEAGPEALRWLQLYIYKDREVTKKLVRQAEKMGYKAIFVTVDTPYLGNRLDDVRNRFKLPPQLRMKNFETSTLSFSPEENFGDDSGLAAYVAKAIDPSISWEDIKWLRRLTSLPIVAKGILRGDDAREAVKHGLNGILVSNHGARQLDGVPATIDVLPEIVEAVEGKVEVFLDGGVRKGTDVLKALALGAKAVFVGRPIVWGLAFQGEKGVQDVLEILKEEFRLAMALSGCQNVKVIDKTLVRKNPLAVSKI
Assay: In-Vitro Human Glycolate Oxidase (hGOX) Assay: The in-vitro glycolate oxidase assay was performed using recombinant full-length human hydroxyacid oxidase 1 (HAO1), the equivalents of hGOX. The enzyme was obtained from AbCam (Catalog #ab113144) and was purified using conventional chromatography to >95% purity. Purified HAO1 was dissolved in assay buffer consisting of 10 mM NaCl, 110 mM KCl, 2 mM MgCl2, 50 mM HEPES (pH 7.4), and 0.01% Triton™ X-100. The assay used Corning 3575 384-well flat bottom, low flange, non-binding surface, black polystyrene plates.Test compounds in DMSO were preincubated at different concentrations with purified recombinant human GO (6 nM) for 10 min, followed by the addition of glycolate substrate (85 μM) to start the reaction. The plates were incubated for 10 min at room temperature, at which point Amplex red reagent (50 μM) was added.The fluorescence intensity signal was measured on a VariosKan LUX instrument using an excitation of 560 nm and an emission of 590 nm. The IC50 values were calculated using Graphpad Prism.

CC(C)CC#Cc1cccc(S(=O)(=O)c2[nH]nnc2C(=O)O)c1
IC50: 4.7 µM
